# Reference: patent US11529319B2, “Methods and compositions for treating neurological conditions” (priority 2017, dated 2022)
# “Also recorded” adds a separate entry of the source.
# Legend:
# Format in all cases: in vivo, mouse
# Mef2c-het mice [1] = test: Morris water maze (spatial learning and memory)
# Text: (§1) Mef2c heterozygous knockout (Mef2c-het) mice were created by crossing mice carrying the conventional exon 2-deleted allele of Mef2c (Mef2c^Δ2) with their WT littermates. All procedures for maintaining and using these mice were approved by the Institutional Animal Care and Use Committee (IACUC) at the Sanford Burnham Prebys Medical Discovery Institute. In this study, only male mice were used for the behavioral assays to insure uniformity (either with or without drug treatment). Chronic treatment with memantine, NitroSynapsin (both at 4.6 μmol/kg body weight) or vehicle (PBS) was administered via i.p. injection, twice a day for at least 3 months, starting at ˜2.5 weeks of age. This age was chosen because mice are still juveniles and thus treatment could begin in human at an equivalent stage.
# We tested spatial reference learning and memory using a version of the conventional Morris water maze. The mice were trained to swim to a platform 14 cm in diameter and submerged 1.5 cm beneath the surface of the water. The platform was invisible to the mice while swimming. […] Mice were given 4 trials a day for as many days as necessary to reach the criterion (<20 s mean escape latency). Retention of spatial training was assessed 24 h after the last training trial. Both probe trials consisted of a 60-s free swim in the pool without the platform. The ANY-maze video tracking system (Stoelting Co.) was used to videotape all trials for automated analysis.
# Mef2c-het mice [2] = test: Open field test (locomotor activity); conditions: chronic treatment, 30-minute test
# Text: as §1
# Locomotor activity was measured in polycarbonate cages (42×22×20 cm) placed into frames (25.5×47 cm) mounted with two levels of photocell beams at 2 and 7 cm above the bottom of the cage (San Diego Instruments, San Diego, Calif.). These two sets of beams allowed recording of both horizontal (locomotion) and vertical (rearing) behavior. A thin layer of bedding material was applied to the bottom of the cage. Mice were tested for 30 or 120 min depending on the exact test.
# Mef2c-het mice [3] = test: Immunohistochemistry and stereological cell counting in hippocampus after chronic treatment
# Text: as §1
# Mice were perfused with PBS buffer and then 2% paraformaldehyde in PBS (PFA).
# After perfusion, brains were removed and placed into 2% PFA overnight for post-fixation and then sunk in 30% sucrose in PBS prior to freezing. Cryostat sections were cut at a thickness of 15 μm. Sections were soaked in Antigen Unmasking Solution (Vector) and microwaved for 30 s, followed by permeabilization with 0.25% Triton X-100 in PBS for 15 min. Primary antibodies were incubated for 16 h at 4° C. and fluorescence-conjugated secondary antibodies for 2 h at 25° C. Numerous unstained cells in each field served as an internal control for staining specificity. Primary antibodies included: NeuN (mouse, EMD Millipore), activated caspase-3 (rabbit, Cell Signaling), VGLUT1 (guinea pig, SYSY), VGLUT2 (rabbit, SYSY), VGAT (mouse, SYSY), synaptophysin (mouse, Sigma), GFAP (mouse, Sigma), PCNA (mouse, Santa Cruz), DCX (goat, Santa Cruz). TUNEL assay was performed to assess apoptosis using the Roche In Situ Cell Death Detection Kit per vender's instruction. The number of cells positive or percent area occupied by NeuN, activated caspase-3, TUNEL, GFAP, PCNA, or DCX was counted in specific brain regions using an optical dissector, or estimated by quantitative confocal immunohistochemistry or optical density, as described previously.
# Tsc2+/- mice [4] = test: Quantitative confocal immunohistochemistry of synaptophysin (SY38) in hippocampus; conditions: i.p. loading 92 μmol/kg then 4.6 μmol/kg twice daily, two and a half days
# Text: To determine the effects of […] antagonists on the brain histology of Tsc2^+/- mice, quantitative confocal immunohistochemistry was used to analyze coronal brain slices from 3-month-old wild-type (WT) and Tsc2^+/- mice that had been treated for two and a half days with vehicle, memantine or NitroSynapsin. Tsc2+/- mice on the C57Bl/6J background received via the intraperitoneal route either vehicle or a loading dose of 92 μmol/kg of memantine or NitroSynapsin, followed by 4.6 μmol/kg of drug twice daily for two-and-a-half-days, with the last dose 3 hours prior to the behavioral training session (for a total of five drug injections). This dosing regimen yields an effective concentration of drug at NMDARs in the brain of 1-10 μM.
# Tsc2+/- mice [5] = test: Fear conditioning test; conditions: two-and-a-half-day treatment, last dose 3 hours before training
# Text: To determine the effects of eNMDAR antagonists on the brain histology of Tsc2^+/− mice, quantitative confocal immunohistochemistry was used to analyze coronal brain slices from 3-month-old wild-type (WT) and Tsc2^+/− mice that had been treated for two and a half days with vehicle, memantine or NitroSynapsin. Tsc2+/− mice on the C57Bl/6J background received via the intraperitoneal route either vehicle or a loading dose of 92 μmol/kg of memantine or NitroSynapsin, followed by 4.6 μmol/kg of drug twice daily for two-and-a-half-days, with the last dose 3 hours prior to the behavioral training session (for a total of five drug injections). This dosing regimen yields an effective concentration of drug at NMDARs in the brain of 1-10 μM.
# Fear conditioning tests were performed on three-month-old Tsc2^+/+ and Tsc2^+/− mice to explore the effects of eNMDAR antagonists on anxiety, and learning and memory deficits in Tsc2^+/− mice. Vehicle, memantine or NitroSynapsin were administered for two and a half days, with the last dose of drug occurring 3-hours prior to the first training session. […] Freezing time of three-month-old WT and Tsc2^+/− transgenic mice treated with vehicle, memantine or NitroSynapsin in fear-conditioning trials. […] Values are mean+s.e.m. (n=7-12 mice per group). […]
smiles,measurement,setting,value
CCC12CC3(N)CC(CC)(C1)CC(O[N+](=O)[O-])(C3)C2 [NitroSynapsin],latency of finding hidden platform during training sessions,"Mef2c-het mice [1]; Mef2c-het mice, 4.6 μmol/kg i.p. twice a day, 3 months",improved performance relative to vehicle
same,"probe test, time in target vs opposite quadrant (memory retention)","Mef2c-het mice [1]; Mef2c-het mice, 4.6 μmol/kg i.p. twice a day, 3 months, 24 h after last training",normalized memory function; also recorded: rescued this effect
same,effect on Morris water maze in WT mice,"Mef2c-het mice [1]; WT mice, 3-month treatment",no effects
same,open field center time / center activity,Mef2c-het mice [2],rescued by chronic treatment with NitroSynapsin; also recorded: rescued by treatment with N
same,PV-immunoreactive synapses (% area),Mef2c-het mice [3],significantly increased; also recorded: significantly ameliorated
same,"TUNEL-positive neurons, hippocampal CA3",Mef2c-het mice [3],reduced back to normal; also recorded: ameliorated in Het/N mice
same,VGAT immunoreactivity in hippocampus,Mef2c-het mice [3],normalized; also recorded: rescue
same,VGLUT1 immunoreactivity in hippocampus,Mef2c-het mice [3],unaltered
same,VGLUT2 immunoreactivity in hippocampus,Mef2c-het mice [3],normalized; also recorded: rescue
same,"activated caspase-3-positive neurons, hippocampal CA3",Mef2c-het mice [3],reduced back to normal; also recorded: ameliorated in Het/N mice
same,number of GFAP+ cells (astrocytes) in hippocampus,Mef2c-het mice [3],normalized the number of GFAP+ cells; also recorded: restored to WT levels
same,ratio of VGLUT1/VGAT,Mef2c-het mice [3],normalized; also recorded: rescue
same,ratio of VGLUT2/VGAT,Mef2c-het mice [3],normalized; also recorded: rescue
same,total number of NeuN+ cells in hippocampus,Mef2c-het mice [3]; optical dissector,significantly greater than in Het/V mice; also recorded: significantly greater effect of NitroSynapsin over memantine; also recorded: significantly greater than in vehicle (V)-treated mice; also recorded: rescue
same,synaptophysin (SY38) staining in hippocampus (% area),Tsc2+/- mice [4],all improved; also recorded: significantly more staining; also recorded: reversed the synaptic loss; also recorded: raised the synaptic signal to WT levels
same,"context discrimination (freezing time, training vs novel context)",Tsc2+/- mice [5],all improved; also recorded: normalizing context discrimination; also recorded: improved the ability to discriminate context in Tsc2^+/− mice to normal WT levels; also recorded: normalized context discrimination
